The source of these data is ChEMBL document CHEMBL5291721, “A preclinical secondary pharmacology resource illuminates target-adverse drug reaction associations of marketed drugs” (Nat Commun, 2023).

Where only a bound is given, the exact number is not on record here.

One assay deals with T1, Adenosine receptor A1 (Homo sapiens, UniProt P30542).
T1 sequence (P30542 whole entry): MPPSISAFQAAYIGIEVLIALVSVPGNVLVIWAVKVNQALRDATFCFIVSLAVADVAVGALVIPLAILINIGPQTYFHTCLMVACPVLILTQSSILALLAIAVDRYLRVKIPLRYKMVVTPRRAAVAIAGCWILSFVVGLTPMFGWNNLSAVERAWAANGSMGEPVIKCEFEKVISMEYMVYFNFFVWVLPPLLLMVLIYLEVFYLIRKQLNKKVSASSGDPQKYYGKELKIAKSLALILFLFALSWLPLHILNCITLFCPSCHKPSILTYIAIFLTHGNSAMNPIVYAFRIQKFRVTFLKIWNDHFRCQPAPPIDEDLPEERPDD

Assay [1] concerns the target Beta-1 adrenergic receptor (Homo sapiens, UniProt P08588). It is filed as functional.
In a further assay the target is Cannabinoid receptor 1 (Homo sapiens, UniProt P21554). Format: functional, cell-based.
Assay [2] concerns the target T2, 5-hydroxytryptamine receptor 1A (Homo sapiens, UniProt P08908).
T2 sequence (P08908 whole entry): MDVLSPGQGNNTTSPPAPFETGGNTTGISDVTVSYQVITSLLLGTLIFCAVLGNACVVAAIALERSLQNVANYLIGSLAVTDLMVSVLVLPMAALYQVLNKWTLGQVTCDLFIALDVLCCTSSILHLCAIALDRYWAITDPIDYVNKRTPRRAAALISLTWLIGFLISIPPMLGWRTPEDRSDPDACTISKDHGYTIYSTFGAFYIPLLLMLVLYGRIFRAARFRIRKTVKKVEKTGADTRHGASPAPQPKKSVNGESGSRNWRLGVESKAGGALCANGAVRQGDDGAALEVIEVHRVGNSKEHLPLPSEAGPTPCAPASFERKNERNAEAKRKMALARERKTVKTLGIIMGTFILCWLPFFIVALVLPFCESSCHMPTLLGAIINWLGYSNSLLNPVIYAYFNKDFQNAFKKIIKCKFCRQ
Format: functional, cell-based.

Assay [3] deals with 5-hydroxytryptamine receptor 2B (Homo sapiens, UniProt P41595). It is filed as functional, cell-based.
Assay [4] has as its target Delta-type opioid receptor (Homo sapiens, UniProt P41143).
Assay [5] has as its target T3, Gastrin/cholecystokinin type B receptor (Homo sapiens, UniProt P32239).
T3 sequence (P32239 whole entry): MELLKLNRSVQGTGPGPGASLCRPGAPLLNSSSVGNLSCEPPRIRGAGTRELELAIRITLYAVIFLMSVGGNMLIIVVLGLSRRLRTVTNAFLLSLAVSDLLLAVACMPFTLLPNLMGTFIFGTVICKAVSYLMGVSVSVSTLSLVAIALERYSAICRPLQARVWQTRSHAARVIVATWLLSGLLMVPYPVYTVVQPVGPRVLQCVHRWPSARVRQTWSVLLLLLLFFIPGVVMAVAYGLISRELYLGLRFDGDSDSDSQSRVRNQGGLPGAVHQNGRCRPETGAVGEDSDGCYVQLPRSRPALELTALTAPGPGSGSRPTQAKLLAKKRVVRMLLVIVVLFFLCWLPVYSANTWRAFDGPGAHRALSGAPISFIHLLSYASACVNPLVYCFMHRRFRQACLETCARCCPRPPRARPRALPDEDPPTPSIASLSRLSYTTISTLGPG

The target of the next assay is T4, Glucocorticoid receptor (Homo sapiens, UniProt P04150).
T4 sequence (P04150 whole entry): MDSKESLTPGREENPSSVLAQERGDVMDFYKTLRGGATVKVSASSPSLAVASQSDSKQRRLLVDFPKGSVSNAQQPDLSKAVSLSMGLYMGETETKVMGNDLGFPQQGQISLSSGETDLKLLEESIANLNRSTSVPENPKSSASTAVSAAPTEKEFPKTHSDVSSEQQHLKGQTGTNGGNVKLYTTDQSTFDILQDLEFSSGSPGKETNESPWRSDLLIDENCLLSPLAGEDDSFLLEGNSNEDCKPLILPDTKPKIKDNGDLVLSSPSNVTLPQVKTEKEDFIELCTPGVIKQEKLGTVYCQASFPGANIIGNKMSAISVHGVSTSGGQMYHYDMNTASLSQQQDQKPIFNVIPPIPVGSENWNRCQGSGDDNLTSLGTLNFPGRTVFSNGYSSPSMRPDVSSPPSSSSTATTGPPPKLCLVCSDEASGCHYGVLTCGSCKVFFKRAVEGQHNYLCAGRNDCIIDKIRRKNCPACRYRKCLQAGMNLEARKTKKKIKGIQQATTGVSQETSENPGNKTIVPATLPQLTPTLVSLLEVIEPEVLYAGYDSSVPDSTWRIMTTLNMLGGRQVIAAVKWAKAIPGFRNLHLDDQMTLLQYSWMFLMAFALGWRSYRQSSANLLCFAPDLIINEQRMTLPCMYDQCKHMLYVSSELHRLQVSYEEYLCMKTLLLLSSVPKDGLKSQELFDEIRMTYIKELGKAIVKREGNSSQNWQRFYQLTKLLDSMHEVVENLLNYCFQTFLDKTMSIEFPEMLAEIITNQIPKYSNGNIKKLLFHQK
Note: assay procedure not described here.

Chain of Beta-1 adrenergic receptor (P08588 whole entry): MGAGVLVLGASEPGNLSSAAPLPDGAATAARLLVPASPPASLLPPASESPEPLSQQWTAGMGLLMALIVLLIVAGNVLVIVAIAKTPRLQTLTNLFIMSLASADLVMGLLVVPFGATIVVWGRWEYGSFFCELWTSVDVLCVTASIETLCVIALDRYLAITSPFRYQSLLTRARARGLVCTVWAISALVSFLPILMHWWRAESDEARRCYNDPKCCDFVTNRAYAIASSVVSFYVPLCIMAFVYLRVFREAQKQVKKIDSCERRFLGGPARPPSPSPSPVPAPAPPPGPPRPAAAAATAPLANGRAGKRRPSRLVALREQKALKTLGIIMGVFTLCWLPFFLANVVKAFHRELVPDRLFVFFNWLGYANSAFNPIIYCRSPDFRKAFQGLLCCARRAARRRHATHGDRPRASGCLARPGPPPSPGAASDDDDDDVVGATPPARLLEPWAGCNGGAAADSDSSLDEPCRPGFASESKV
Chain of Cannabinoid receptor 1 (P21554 whole entry): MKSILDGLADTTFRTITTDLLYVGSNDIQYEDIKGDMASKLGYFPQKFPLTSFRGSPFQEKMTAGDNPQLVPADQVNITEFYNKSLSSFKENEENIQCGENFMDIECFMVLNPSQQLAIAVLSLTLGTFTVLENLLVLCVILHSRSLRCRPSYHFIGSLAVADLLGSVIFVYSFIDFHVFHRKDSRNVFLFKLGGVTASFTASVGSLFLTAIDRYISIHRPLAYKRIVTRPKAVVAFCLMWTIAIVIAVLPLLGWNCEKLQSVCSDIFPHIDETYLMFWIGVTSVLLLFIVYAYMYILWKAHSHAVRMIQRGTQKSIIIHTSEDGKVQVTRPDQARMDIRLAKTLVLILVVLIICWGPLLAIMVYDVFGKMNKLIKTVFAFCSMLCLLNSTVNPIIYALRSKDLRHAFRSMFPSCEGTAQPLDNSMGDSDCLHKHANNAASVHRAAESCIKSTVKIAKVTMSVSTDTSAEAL
Chain of 5-hydroxytryptamine receptor 2B (P41595 whole entry): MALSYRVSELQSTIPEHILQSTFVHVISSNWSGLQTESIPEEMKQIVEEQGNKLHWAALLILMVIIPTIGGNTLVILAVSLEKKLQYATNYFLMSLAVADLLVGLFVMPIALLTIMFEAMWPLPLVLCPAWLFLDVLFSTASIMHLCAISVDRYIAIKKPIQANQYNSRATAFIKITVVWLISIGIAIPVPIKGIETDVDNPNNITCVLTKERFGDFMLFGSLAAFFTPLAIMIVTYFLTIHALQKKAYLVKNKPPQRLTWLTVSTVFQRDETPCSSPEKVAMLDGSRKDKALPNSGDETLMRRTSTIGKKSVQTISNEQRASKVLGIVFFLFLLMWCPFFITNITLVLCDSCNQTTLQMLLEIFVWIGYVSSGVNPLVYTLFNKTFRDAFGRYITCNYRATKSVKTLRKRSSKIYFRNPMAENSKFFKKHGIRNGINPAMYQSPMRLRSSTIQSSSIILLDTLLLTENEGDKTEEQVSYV
Chain of Delta-type opioid receptor (P41143 whole entry): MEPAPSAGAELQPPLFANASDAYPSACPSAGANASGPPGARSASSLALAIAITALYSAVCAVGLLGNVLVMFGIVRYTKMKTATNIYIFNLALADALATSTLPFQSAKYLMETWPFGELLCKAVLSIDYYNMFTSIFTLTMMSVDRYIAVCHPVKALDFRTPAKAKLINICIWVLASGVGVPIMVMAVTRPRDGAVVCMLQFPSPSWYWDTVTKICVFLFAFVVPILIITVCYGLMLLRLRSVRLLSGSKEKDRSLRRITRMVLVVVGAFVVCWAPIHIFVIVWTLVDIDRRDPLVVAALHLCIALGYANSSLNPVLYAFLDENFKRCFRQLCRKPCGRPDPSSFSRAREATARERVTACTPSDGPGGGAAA

`CC(=N)N1CC[C@H](SC2=C(C(=O)O)N3C(=O)[C@H]([C@@H](C)O)[C@H]3C2)C1`: the AC50 was greater than 300 µM at Adenosine receptor A1; 230 µM in assay [1]; greater than 300 µM on Cannabinoid receptor 1; greater than 300 µM in assay [2]; greater than 300 µM in assay [3]; 290 µM in assay [4].
For `CC(/C=C1\SC(=S)N(CC(=O)O)C1=O)=C\c1ccccc1`, the AC50 was 15 µM at Adenosine receptor A1; 26 µM in assay [1]; greater than 30 µM in assay [5]; greater than 30 µM on Cannabinoid receptor 1; 21 µM in assay [2]; greater than 30 µM in assay [3]. In assay [4], this compound came in with an AC50 of 9 µM.
For `CC1(C)S[C@@H]2[C@H](NC(=O)[C@H](N)c3ccc(O)cc3)C(=O)N2[C@H]1C(=O)O` [AMOXICILLIN], the AC50 on Adenosine receptor A1 was greater than 30 µM; in assay [1], greater than 30 µM; in assay [5], greater than 30 µM; in assay [2], greater than 10 µM; in assay [3] it was greater than 30 µM; in assay [4] it was greater than 30 µM.
As to `O=C1CN2Cc3c(ccc(Cl)c3Cl)N=C2N1` [ANAGRELIDE], the AC50 at Adenosine receptor A1 is greater than 30 µM; in assay [1], greater than 10 µM; in assay [5], greater than 30 µM; at Cannabinoid receptor 1, greater than 30 µM; in assay [3], greater than 10 µM; at Glucocorticoid receptor it was greater than 30 µM. This compound returned an AC50 in assay [4] greater than 30 µM.
Regarding `CNCC[C@@H](Oc1ccccc1C)c1ccccc1` [ATOMOXETINE], the AC50 (at Adenosine receptor A1; in assay [1]; in assay [5]; at Cannabinoid receptor 1; in assay [3]; on Glucocorticoid receptor) was greater than 30 µM in each case. Besides, in assay [4], the AC50 is greater than 30 µM.
For the compound `C=C(C)[C@@H]1CCC(C)=C[C@H]1c1c(O)cc(CCCCC)cc1O` [CANNABIDIOL], the AC50 is greater than 30 µM at Adenosine receptor A1; greater than 30 µM in assay [1]; greater than 10 µM in assay [2]; greater than 30 µM in assay [3]; greater than 30 µM in assay [4].
In the case of `[H]/N=C(\N/C(=N/[H])NCCCCCCNC(=N)NC(=N)Nc1ccc(Cl)cc1)Nc1ccc(Cl)cc1` [CHLORHEXIDINE], the half-maximal activity concentration (AC50) on Adenosine receptor A1 was greater than 30 µM; in assay [1] it was 1.4 µM; on Cannabinoid receptor 1, greater than 30 µM; in assay [2], 8.3 µM; in assay [3], greater than 30 µM; on Glucocorticoid receptor, greater than 30 µM. Further, the AC50 in assay [4] is greater than 10 µM.
For the compound `CN1C[C@H](C(=O)N[C@]2(C)O[C@@]3(O)[C@@H]4CCCN4C(=O)[C@H](Cc4ccccc4)N3C2=O)C[C@@H]2c3cccc4[nH]cc(c34)C[C@H]21` [DIHYDROERGOTAMINE], the AC50 was greater than 30 µM on Adenosine receptor A1; greater than 10 µM in assay [1]; greater than 30 µM in assay [5]; greater than 30 µM on Cannabinoid receptor 1; 2.77 µM in assay [3]; greater than 30 µM on Glucocorticoid receptor. The compound also gave an AC50 in assay [4] greater than 30 µM.
As to `CNCC[C@H](Oc1cccc2ccccc12)c1cccs1` [DULOXETINE], the AC50 on Adenosine receptor A1 is greater than 30 µM; in assay [1] it was 15 µM; in assay [5], greater than 30 µM; at Cannabinoid receptor 1, greater than 30 µM; in assay [3] it was greater than 10 µM; at Glucocorticoid receptor, greater than 30 µM. In assay [4], this compound came in with an AC50 greater than 30 µM.
With `CC1(C)O[C@@H]2C[C@H]3[C@@H]4C[C@H](F)C5=CC(=O)C=C[C@]5(C)[C@H]4[C@@H](O)C[C@]3(C)[C@]2(C(=O)CO)O1` [FLUNISOLIDE], the AC50 at Adenosine receptor A1 was greater than 30 µM; in assay [1] it was greater than 30 µM; at Cannabinoid receptor 1, greater than 30 µM; in assay [2] it was 0.56 µM; in assay [3], greater than 30 µM; in assay [4] it was greater than 30 µM.
Turning to `C[C@H]1Oc2cc(cnc2N)-c2c(nn(C)c2C#N)CN(C)C(=O)c2ccc(F)cc21` [LORLATINIB], the AC50 at Adenosine receptor A1 is greater than 30 µM; in assay [1], greater than 30 µM; at Cannabinoid receptor 1, greater than 30 µM; in assay [2] it was 6.2 µM; in assay [3], greater than 30 µM; in assay [4] it was greater than 30 µM.
Take `CC[C@@H](CO)NC(=O)[C@@H]1C=C2c3cccc4[nH]cc(c34)C[C@H]2N(C)C1` [METHYLERGONOVINE]: the AC50 on Adenosine receptor A1 is greater than 30 µM; in assay [5], greater than 30 µM; on Cannabinoid receptor 1 it was greater than 30 µM; in assay [3], 0.0257 µM; on Glucocorticoid receptor, greater than 30 µM; in assay [4], greater than 30 µM.
`CNCCC=C1c2ccccc2CCc2ccccc21` [NORTRIPTYLINE]: the AC50 at Adenosine receptor A1 was greater than 30 µM; in assay [5], greater than 30 µM; in assay [2], 8 µM; in assay [3], greater than 30 µM; at Glucocorticoid receptor, greater than 30 µM; in assay [4] it was greater than 30 µM.
For `COc1ccc(Cc2nccc3cc(OC)c(OC)cc23)cc1OC` [PAPAVERINE], the concentration at half-maximal activity (AC50) (on Adenosine receptor A1; in assay [1]; in assay [5]; at Cannabinoid receptor 1; in assay [3]) was greater than 30 µM throughout.
For `CCOc1cc(CC(=O)N[C@@H](CC(C)C)c2ccccc2N2CCCCC2)ccc1C(=O)O` [REPAGLINIDE], the AC50 at Adenosine receptor A1 is greater than 30 µM; in assay [1], greater than 30 µM; at Cannabinoid receptor 1, greater than 30 µM; in assay [2] it was greater than 30 µM; in assay [3], greater than 10 µM; in assay [4] it was greater than 30 µM.
Take `NC(=O)c1ncn([C@@H]2O[C@H](CO)[C@@H](O)[C@H]2O)n1` [RIBAVIRIN]: the AC50 in assay [1] was greater than 10 µM; on Cannabinoid receptor 1, greater than 30 µM; in assay [3], greater than 10 µM; on Glucocorticoid receptor, greater than 10 µM; in assay [4], greater than 30 µM.
With `O=C(Nc1c(Cl)cncc1Cl)c1ccc(OC(F)F)c(OCC2CC2)c1` [ROFLUMILAST], the concentration at half-maximal activity (AC50) (on Adenosine receptor A1; in assay [1]; in assay [5]; on Cannabinoid receptor 1; in assay [3]; at Glucocorticoid receptor) was greater than 30 µM in each case.
In the case of `CCCN(CCc1cccs1)[C@H]1CCc2c(O)cccc2C1` [ROTIGOTINE], the AC50 on Adenosine receptor A1 is greater than 30 µM; in assay [1], greater than 30 µM; at Cannabinoid receptor 1, greater than 30 µM; in assay [2], 0.67 µM; in assay [3], 0.43 µM; in assay [4], 25 µM.
As to `CC[C@H]1OC(=O)[C@H](C)[C@@H](O[C@H]2C[C@@](C)(OC)[C@@H](O)[C@H](C)O2)[C@H](C)[C@@H](O[C@@H]2O[C@H](C)C[C@H](N(C)C)[C@H]2O)[C@](C)(O)C[C@@H](C)/C(=N\OCOCCOC)[C@H](C)[C@@H](O)[C@]1(C)O` [ROXITHROMYCIN], the AC50 (on Adenosine receptor A1; in assay [1]; at Cannabinoid receptor 1; in assay [2]; in assay [3]; in assay [4]) was greater than 30 µM throughout.

One may read the AC50 as the concentration at which the activity in the assay is half-maximal. High values mean activity only at high concentration, low ones activity at low concentration.
